According to patent US5215971A, “Antiviral pharmaceutical composition comprising 5-substituted pyrimidine nucleosides” (priority 1986, dated 1993):
Read-outs that look alike come from different tables or passages of the source.

What was measured:
[1] = monkeys, Tao et al., cited from earlier work; for absorption: oral; for Elimination half-lives: range given for both compounds together
[2] = test system: HIV (HTLV-IIIB) in H9 cells; test: Inhibition of human immunodeficiency virus multiplication in cell culture (HIV infection of H9 cells); type: cell-based; settings: Human immunodeficiency virus 1, 6-7 days, HIV antigen containing cells by immunofluorescence, read-out: Concentration for 50% inhibition (IC50) of human immunodeficiency virus multiplication in cell culture
Experimental: H9 cells, 10^5 cells per well on a 24 well plate, suspended in 2 ml RPMI-medium containing 10% fetal calf serum, 100 μg/ml penicillin, 10 μg/ml streptomycin sulfate and 2 μg/ml polybrene are exposed to HIV (HTLV-IIIB) and different concentrations of the inhibiting compounds. The plates are incubated at 37° C. in 5% CO2 for 6-7 days. The contents in each well is then homogenized with a pipette and transferred to a centrifuge tube. After centrifugation for 10 min at 1500 rpm the supernatent is removed and the cell pellet is analyzed by fixing in methanol on glass plates. Human HIV positive serum diluted 1:80 or 1:160 is added and incubated for 30 min at 37°. The plate is then washed with phosphate-buffered saline (PBS) containing Ca^2+ and Mg^2+. Sheep antihuman conjugate (FITC) is added and after a new incubation the plate is again washed with PBS. Contrast staining is done with Evans blue and after drying the frequency of HIV antigen containing cells is determined in a microscope.

[3] = molecular target: Duck hepatitis virus polymerase (Duck hepatitis B virus, UniProt P03162); test: Inhibition of duck hepatitis B virus polymerase (reverse transcriptase) using DNA and RNA templates; type: biochemical; settings: compounds used as 5'-triphosphates
Source text: (§1) There is no cell culture assay which can be used to determine the efficiacy of compounds against hepatitis B virus. However, the hepatitis B virus encodes a reverse transcriptase, Summer and Mason, Cell 29 (1982) 403-415, obligatory for hepatitis b virus replication. This enzyme, which is also a consituent of the hepatitis B virus particles, can be used to evaluate the inhibitory activity against hepatitis B virus of nucleoside analogues provided that these compounds are used as their metabolic products, 5'-triphosphates. […] The hepatitis B virus reverse transcriptase can, as all reverse transcriptases, use both RNA and DNA templates, and included in Table 2 is also the inhibition of duck hepatitis B virus polymerase using both DNA and RNA templates.
(§2) The assays were performed as described in Tao et al. Hepatitis B virus was for a long time considered to be a DNA virus with a viral DNA polymerase being part of the virus particles. However, it was discovered that the hepatitis B virus DNA polymerase activity was due to a reverse transcriptase and that this virus should be regarded as a retrovirus which, in contrast to other retroviruses, uses its DNA phase as genetic material in the virus particles. Summers and Mason. Hepatitis B viruses are therefore not related to DNA viruses such as herpes-viruses or adeno-virus, but rather are related to retroviruses such as HIV.

[4] = molecular target: Hepatitis B virus polymerase (Hepatitis B virus genotype D subtype ayw, UniProt P03156); test: Inhibition of hepatitis B virus polymerase (reverse transcriptase) using a DNA template; type: biochemical; settings: compounds used as 5'-triphosphates
Source text: as §1, §2

[5] = DNA template, read-out: IC50, duck hepatitis virus polymerase, DNA template
[6] = RNA template, read-out: IC50, duck hepatitis virus polymerase, RNA template

Chain of Duck hepatitis virus polymerase (P03162 whole entry): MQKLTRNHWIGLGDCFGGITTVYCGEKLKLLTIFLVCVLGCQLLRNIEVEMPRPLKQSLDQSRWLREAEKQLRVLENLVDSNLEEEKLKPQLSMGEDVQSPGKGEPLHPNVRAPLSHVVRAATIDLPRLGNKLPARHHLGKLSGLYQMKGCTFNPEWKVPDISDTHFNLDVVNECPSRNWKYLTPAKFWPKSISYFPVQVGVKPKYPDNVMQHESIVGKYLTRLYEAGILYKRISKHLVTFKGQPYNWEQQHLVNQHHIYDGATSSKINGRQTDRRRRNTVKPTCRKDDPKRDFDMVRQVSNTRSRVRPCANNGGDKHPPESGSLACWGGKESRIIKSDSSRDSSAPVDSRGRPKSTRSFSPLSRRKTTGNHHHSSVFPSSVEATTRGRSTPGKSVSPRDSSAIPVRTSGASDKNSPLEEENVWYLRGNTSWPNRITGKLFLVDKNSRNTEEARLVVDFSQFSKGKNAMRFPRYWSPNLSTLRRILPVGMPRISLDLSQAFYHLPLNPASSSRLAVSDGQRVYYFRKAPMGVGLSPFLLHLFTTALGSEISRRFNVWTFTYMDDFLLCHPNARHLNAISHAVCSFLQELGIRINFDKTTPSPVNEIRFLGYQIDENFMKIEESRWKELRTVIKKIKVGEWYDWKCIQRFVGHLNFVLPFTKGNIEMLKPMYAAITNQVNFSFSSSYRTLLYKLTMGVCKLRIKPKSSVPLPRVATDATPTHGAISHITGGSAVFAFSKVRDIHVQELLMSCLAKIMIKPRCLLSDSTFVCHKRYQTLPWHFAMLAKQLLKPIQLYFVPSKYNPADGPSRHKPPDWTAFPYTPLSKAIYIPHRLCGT
Chain of Hepatitis B virus polymerase (P03156 whole entry): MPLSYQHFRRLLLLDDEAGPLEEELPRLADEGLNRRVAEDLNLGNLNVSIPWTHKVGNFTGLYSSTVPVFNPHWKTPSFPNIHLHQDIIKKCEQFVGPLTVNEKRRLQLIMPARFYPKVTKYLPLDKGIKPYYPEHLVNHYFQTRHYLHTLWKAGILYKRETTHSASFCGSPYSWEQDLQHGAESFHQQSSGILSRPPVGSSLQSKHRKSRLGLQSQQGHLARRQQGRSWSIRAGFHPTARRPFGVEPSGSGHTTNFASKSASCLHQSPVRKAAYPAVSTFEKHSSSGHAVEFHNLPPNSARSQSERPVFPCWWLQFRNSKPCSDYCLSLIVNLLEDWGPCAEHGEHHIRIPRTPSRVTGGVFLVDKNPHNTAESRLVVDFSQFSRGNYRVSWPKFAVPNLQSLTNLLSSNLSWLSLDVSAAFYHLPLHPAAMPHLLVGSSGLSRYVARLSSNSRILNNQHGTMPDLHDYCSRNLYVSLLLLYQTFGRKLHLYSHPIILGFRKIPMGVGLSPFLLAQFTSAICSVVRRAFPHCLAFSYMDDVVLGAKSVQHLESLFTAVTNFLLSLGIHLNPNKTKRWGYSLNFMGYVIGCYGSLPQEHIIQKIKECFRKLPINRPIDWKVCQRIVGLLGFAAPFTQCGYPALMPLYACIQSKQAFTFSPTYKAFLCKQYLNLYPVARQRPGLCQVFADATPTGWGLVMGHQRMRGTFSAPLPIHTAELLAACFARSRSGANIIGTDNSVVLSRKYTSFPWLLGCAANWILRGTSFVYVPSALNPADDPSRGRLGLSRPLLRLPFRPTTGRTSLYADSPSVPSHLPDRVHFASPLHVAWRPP

In the case of `CC=Cc1cn([C@@H]2O[C@H](CO)[C@@H](O)[C@@H]2O)c(=O)[nH]c1=O` [1-(β-D-arabinofuranosyl)-5-(1-propenyl)-uracil], the absorption [1] is listed as “moderately well absorbed”, the Elimination half-lives [1] is listed as 1.2 to 1.8 h and the IC50 [2] is listed as under 1 µM. It also gave an IC50 [3, 5] of 0.34 µM, an IC50 [3, 6] of 0.54 µM and an IC50 [4] of 0.24 µM.
`CCc1cn([C@@H]2O[C@H](CO)[C@@H](O)[C@@H]2O)c(=O)[nH]c1=O` [1-(β-D-arabinofuranosyl)-5-ethyluracil] showed an IC50 [2] of 2 µM.
With `C=C(C)c1cn([C@@H]2O[C@H](CO)[C@@H](O)[C@@H]2O)c(=O)[nH]c1=O` [1-(β-D-arabinofuranosyl)-5-isopropenyluracil] the IC50 [2] was 2 µM.
For `C=C(C)c1cn([C@H]2C[C@H](O)[C@@H](CO)O2)c(=O)[nH]c1=O` [5-(1-isopropenyl)-2'-deoxyuridine], the IC50 [2] was 1 to 10 µM.
For `CC=Cc1cn([C@H]2C[C@H](O)[C@@H](CO)O2)c(=O)[nH]c1=O` [5-(1-propenyl)-2'-deoxyuridine], the absorption [1] is given as “moderately well absorbed”, the Elimination half-lives [1] is given as 1.2 to 1.8 h and the IC50 [2] is given as under 1 µM. For the same molecule, the IC50 [3, 5] was 0.11 µM, the IC50 [3, 6] was 0.15 µM and the IC50 [4] was 0.1 µM.
In the case of `CCc1cn([C@H]2C[C@H](O)[C@@H](CO)O2)c(=O)[nH]c1=O` [5-Ethyl-2'-deoxythymidine], the IC50 [3, 5] is reported as 0.9 µM, the IC50 [3, 6] is reported as 0.74 µM and the IC50 [4] is reported as 0.25 µM.
Work on `O=c1[nH]c(=O)n([C@H]2C[C@H](O)[C@@H](CO)O2)cc1C1CC1` [5-cyclopropyl-2'-deoxyuridine] yielded an IC50 [2] of under 1 µM.
With `CCc1cn([C@H]2C[C@H](O)[C@@H](CO)O2)c(=O)[nH]c1=O` [5-ethyl-2'-deoxyuridine] the IC50 [2] was 1 µM.
With `O=c1[nH]c(=O)n([C@H]2C[C@H](O)[C@@H](CO)O2)cc1CO` [5-hydroxymethyl-2'-deoxyuridine] the IC50 [2] was under 1 µM, the IC50 [3, 5] was 0.5 µM and the IC50 [3, 6] was 0.24 µM. The IC50 [4] was 0.25 µM.
